Measured values: article PMC11794154, “Molecular basis for the diversification of lincosamide biosynthesis by pyridoxal phosphate-dependent enzymes” (Nature Chemistry, 2024)

Legend:
CcbF = molecular target: T1, CcbF (Streptomyces caelestis, UniProt E9JES7); assay: X-ray crystal structure, […] Å; type: binding; details: covalent; internal aldimine with Lys260
T1 construct: full-length gene in pET42b (NdeI/XhoI), C-terminal His8 tag, expressed in E. coli BLR(DE3)/pGro7; catalytic Lys260; printed ccbF forward primer is identical to the lmbF one (likely misprint)
T1 sequence (E9JES7 entry or part of it): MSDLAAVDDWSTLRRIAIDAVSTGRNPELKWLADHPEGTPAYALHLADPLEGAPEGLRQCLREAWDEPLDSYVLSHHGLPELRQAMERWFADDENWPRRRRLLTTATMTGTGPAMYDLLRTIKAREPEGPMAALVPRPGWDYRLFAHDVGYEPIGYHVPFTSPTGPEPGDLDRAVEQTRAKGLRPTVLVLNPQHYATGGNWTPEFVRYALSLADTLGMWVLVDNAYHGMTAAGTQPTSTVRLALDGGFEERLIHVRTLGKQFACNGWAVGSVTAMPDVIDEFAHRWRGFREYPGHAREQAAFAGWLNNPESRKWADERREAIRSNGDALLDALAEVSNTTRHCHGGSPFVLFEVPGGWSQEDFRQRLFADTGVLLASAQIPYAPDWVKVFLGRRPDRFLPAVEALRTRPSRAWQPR

LmbF = molecular target: T2, LmbF (Streptomyces lincolnensis, UniProt A9Y8R7); assay: X-ray crystal structure, […] Å; type: binding; details: covalent; internal aldimine with Lys270
T2 construct: full-length gene in pET42b (NdeI/XhoI), C-terminal His8 tag, expressed in E. coli BLR(DE3)/pGro7; active site at dimer interface; catalytic Lys270
T2 sequence (A9Y8R7 entry or part of it): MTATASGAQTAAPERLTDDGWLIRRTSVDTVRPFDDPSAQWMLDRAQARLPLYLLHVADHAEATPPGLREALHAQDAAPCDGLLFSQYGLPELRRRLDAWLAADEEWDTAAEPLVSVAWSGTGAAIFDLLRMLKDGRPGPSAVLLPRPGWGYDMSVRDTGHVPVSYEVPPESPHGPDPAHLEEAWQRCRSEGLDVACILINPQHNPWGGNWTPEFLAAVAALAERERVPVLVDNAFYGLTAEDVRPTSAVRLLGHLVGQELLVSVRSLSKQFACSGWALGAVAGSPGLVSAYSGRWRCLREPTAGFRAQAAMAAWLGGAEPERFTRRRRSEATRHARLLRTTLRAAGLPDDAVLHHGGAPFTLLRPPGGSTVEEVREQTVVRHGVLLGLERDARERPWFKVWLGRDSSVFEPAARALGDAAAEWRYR

SMILES: Cc1ncc(COP(=O)(O)O)c(C=O)c1O [PLP]
- X-ray crystal structure, 1.8 Å (CcbF): we solved the X-ray crystal structures of LmbF and CcbF with PLP
- X-ray crystal structure, 1.7 Å (LmbF): we solved the X-ray crystal structures of LmbF and CcbF with PLP
